# Key:
# [1] = evening versus morning dosing; Khodadoustan et al. 2017; cited from earlier work
# [2] = tested on: PTZ-evoked seizures in CD-1 male mice; assay: PTZ acute seizure model, combination of Compound 1 with Compound A (Example 2); type: in vivo; conditions: 30 minutes before PTZ 120 mg/kg s.c., n=12
# Experimental: The combination of Compound 1 with Compound A for the treatment of seizures was investigated using a PTZ acute seizure model. Accordingly, the effect on PTZ-evoked seizures was evaluated for a vehicle control, Compound A alone, Compound 1 alone, and a combination of Compound 1 and Compound A.
# Six-week old CD-1 male mice (25-35 g) were used in the following experiment. Study groups (n=12 for each group) were as follows: • (1) 35% 2-hydroxypropyl-beta-cyclodextrin (HPBCD), the vehicle for Compound 1 and Compound A (10 ml/kg, p.o.); • (2) Compound A (1 mg/kg, p.o.); • (3) Compound A (3 mg/kg, p.o.); • (4) Compound A (6 mg/kg, p.o.); • (5) Compound A (10 mg/kg, p.o); • (6) Compound 1 (10 mg/kg, p.o.); and • (7) Compound A (1 mg/kg, p.o.) and Compound 1 (10 mg/kg, p.o.).
# In each instance, 30 minutes after administration of the vehicle or compound(s), PTZ was administered at 120 mg/kg, s.c., 10 ml/kg.
# Dosing solutions were made from stock solutions of the highest dose and diluted down for the lower doses. All solutions were protected from light and made fresh daily for two experiment days. […]
# Latency and total numbers of clonic/tonic seizures were recorded for 30 minutes, and latency to death was also recorded up to 30 minutes. […] The latency and number of seizures for each mouse was recorded by an individual blinded to the treatment. […]
# [3] = evening versus morning administration; as disclosed in WO 2022/232104; cited from earlier work
structure (smiles),measurement,setting,value
CCOC(=O)C1=C(COCCN)NC(C)=C(C(=O)OC)C1c1ccccc1Cl (stereo not shown) [amlodipine besylate],"Cmax, evening administration compared to morning dosing",[1],increased
same,"Tmax, evening administration compared to morning dosing",[1],reduced
CCOC(F)(F)c1nnc2ccc(-c3cnc(OCC(F)(F)F)c(F)c3)cn12 [Compound A],seizure-free mice of the twelve mice,"[2]; Compound A 1 mg/kg p.o. alone, p<0.01 versus combination",none
"COC[C@@]1(O)CC[C@@]2(C)[C@@H](CC[C@@H]3[C@@H]2CC[C@]2(C)[C@@H](C(=O)Cn4ccnc4)CC[C@@H]32)C1 [Compound 1, 3α-Hydroxy-3β-methoxymethyl-21-(1′-imidazolyl)-5α-pregnan-20-one]","maximum observed plasma concentration (Cmax), evening compared to morning administration",[3],reduces
same,"overall drug exposure (AUCinf), evening compared to morning administration",[3],similar
same,"time to maximum plasma concentration (tmax), evening compared to morning administration",[3],increases
same,seizure-free mice of the twelve mice,"[2]; Compound 1 10 mg/kg p.o. alone, n.s. versus combination",3
